Results as given in US11351124B2, “Sustained release of formulations of local anesthetics” (EUPRAXIA PHARMACEUTICALS INC., priority 2015, dated 2022).
≈ marks a conversion by molar mass, not a printed value. Where “and” joins values, the source holds several entries; their conditions need not be identical. Equal values may be shown once.

Tests used:
[1] = Dissolution of ropivacaine crystals in suspension, USP I apparatus; type: physicochemical
Description: Prior to assessing intrinsic dissolution of ropivacaine, the kinetics of dissolution of crystals in suspension was assessed using a USP I apparatus with either large (1 L capacity, filled to 500 mL) or small (150 mL) dissolution baths. The stir speed was 50 rpm in the large vessel method and 100 rpm in the small vessel method and temperature was 37° C. The media was PBS with 0.1% SDS. The commercial ropivacaine was dissolved rapidly with greater than 60% of the material dissolved within 30 minutes. A 17 mg sample dissolving in the large vessel reached a plateau within 4 hours, although only approximately 80% of the ropivacaine added to the experiment was accounted for.
Approximately 100-120% of the compound was accounted for in this assay. […] The Y-intercept values of the regression is representative of the magnitude of the “burst”, which was 25× higher for the commercial sample compared to the recrystallized sample. See also FIG. 1A.

postsurgical pain = details: in vivo; cited from earlier work
[2] = Solubility of ropivacaine in various aqueous media; type: physicochemical
Description: As used herein, the aminoamide local anesthetic agents are typically in the free base form, which have lower solubility in an aqueous medium than their salt form (e.g., HCl salt). The low solubility (e.g., less than 1 mg/ml) enables a rapid formation of a saturated solution within the PVA coating or shell.

[3] = Franz cell diffusion of ropivacaine through PVA membranes; type: physicochemical; details: for Fold Decrease in D: relative to buffer with no membrane
Description: The diffusion behavior of the encapsulated drug in vivo can be predicted based on diffusion coefficient measured in a Franz cell diffusion system. In particular, diffusion coefficient (D) can be quantified according to Equation 1: [formula] where: • D: Diffusion coefficient (cm^2/s) • L: membrane thickness (cm) • J: flux: (μg×cm^−2×s^−1)=slope (μg/mL/h)×volume (9.8 mL)[…](3600 s/h×A cm^2) • A: surface area of the Franz cell (0.650 cm^2) • ΔC: concentration gradient of ropivacaine (μg/mL or μg/cm^3)=339.98 μg/mL (measured […] fluid concentration)−0 μg/mL (assumed […] concentration) The diffusion of ropivacaine through PVA membranes was measured using a Franz diffusion cell system. The system includes a top donor chamber containing a donor fluid, which is sealed with parafilm during the experiment; and a bottom receptor chamber containing a receptor fluid (9.8 mL of PBS pH 7.3). The donor fluid was prepared in a single batch for use in all diffusion experiments, and consisted of PBS pH 7.3. It was prepared by stirring excess solid ropivacaine in the media for 3 days, and filtering to remove the solids with a 0.22 μm filter. The assayed content was 339.98 μg/m L. The rate of appearance of ropivacaine in the Franz cell receptor fluid (the slope of the concentration versus time plot of the data multiplied by the receptor cell volume, 9.8 mL), and the measured membrane thickness (after hydration), were used to calculate the ropivacaine diffusion coefficient through the membrane, using the formula for Fick's law (Equation 1). The concentration of ropivacaine in the receptor (bottom) chamber was measured at different time points, and the diffusion coefficient was determined from Fick's first law of diffusion. Measured concentrations were converted to total drug transport (μg) by multiplying by the receptor fluid volume (9.8 mL for all experiments). FIGS. 3-5 show the diffusion rate for the first 5 hours for three PVA membranes at various degrees of crosslinking induced by various amounts of citric acid.

[4] = Intrinsic dissolution of ropivacaine, uncoated vs coated with PVA membrane (FIG. 2); type: physicochemical; details: PVA membrane Mn=20-200 kDa, 87% hydrolyzed, 12% citric acid, cured at 125° C. for 6 hours
[5] = USP I, PBS with 0.1% SDS, 37° C.
[6] = PVA membrane 87% hydrolysis, Mn 20-220 kDa, 4% citric acid, 125 °C 6 h
[7] = PVA membrane 87% hydrolysis, Mn 20-220 kDa, 8% citric acid, 125 °C 6 h
[8] = PVA membrane 87% hydrolysis, Mn 20-220 kDa, 12% citric acid, 125 °C 6 h
[9] = PVA membrane 87% hydrolysis, Mn 20-220 kDa, 20% citric acid, 125 °C 6 h
[10] = PVA membrane 87% hydrolysis, Mn 20-220 kDa, 30% citric acid, 125 °C 6 h
[11] = PVA membrane 87% hydrolysis, Mn 146-186 kDa, 4% citric acid, 125 °C 6 h
[12] = PVA membrane 87% hydrolysis, Mn 146-186 kDa, 8% citric acid, 125 °C 6 h
[13] = PVA membrane 87% hydrolysis, Mn 146-186 kDa, 12% citric acid, 125 °C 6 h
[14] = PVA membrane >99% hydrolysis, Mn 90 kDa, 8% citric acid, 125 °C 6 h
[15] = PVA membrane >99% hydrolysis, Mn 90 kDa, 12% citric acid, 125 °C 6 h
[16] = PVA membrane >99% hydrolysis, Mn 90 kDa, 20% citric acid, 125 °C 6 h
[17] = PVA membrane >99% hydrolysis, Mn 146-186 kDa, 0% citric acid, 125 °C 6 h
[18] = PVA membrane >99% hydrolysis, Mn 146-186 kDa, 0% citric acid, 129 °C 3 h
[19] = PVA membrane >99% hydrolysis, Mn 146-186 kDa, 0% citric acid, 140 °C 6 h
[20] = PVA membrane >99% hydrolysis, Mn 146-186 kDa, 4% citric acid, 125 °C 6 h
[21] = PVA membrane >99% hydrolysis, Mn 146-186 kDa, 4% citric acid, 140 °C 6 h
[22] = PVA membrane >99% hydrolysis, Mn 146-186 kDa, 8% citric acid, 125 °C 6 h
[23] = PVA membrane >99% hydrolysis, Mn 146-186 kDa, 12% citric acid, 125 °C 6 h

CCCN1CCCC[C@H]1C(=O)Nc1c(C)cccc1C [commercial ropivacaine, ropivacaine]
Time to reach dissolution plateau ([1]; 17 mg sample, large vessel (500 mL, 50 rpm), PBS with 0.1% SDS, 37° C.): ≤ 4 h
Ropivacaine added to the experiment accounted for ([1]; 17 mg sample, large vessel, at plateau): approximately 80%
Material dissolved within 30 minutes [1, 5]: greater than 60%
Magnitude of the burst (Y-intercept of regression), compared to the recrystallized sample ([1]; small vessel apparatus, burst phase within first 30 minutes): 25 ×

CCCCN1CCCCC1C(=O)Nc1c(C)cccc1C (centres unmarked) [conventional bupivacaine, bupivacaine]
Duration of action (postsurgical pain): ≤ 7 h

CCCN1CCCC[C@H]1C(=O)Nc1c(C)cccc1C [recrystallized ropivacaine, ropivacaine]
Rate of dissolution slowed as compared to commercial ropivacaine ([1]; FIG. 1A): about 10 times
Compound accounted for in this assay [1, 5]: 100-120%
Material dissolved over the first 6 hours (gradual dissolution) [1, 5]: 60%

CCCN1CCCC[C@H]1C(=O)Nc1c(C)cccc1C [ropivacaine]
solubility ([2]; PBS + 0.05% SDS, pH 7.4, aqueous with cosolvent or surfactant or cyclodextrin): 254 ± 14 µg/mL
solubility ([2]; PBS + 68 mg/mL BSA, pH 7.4, plasma or biological fluid): 792 ± 111 µg/mL
solubility ([2]; PBS + 0.1% SDS, pH 7.4, aqueous with cosolvent or surfactant or cyclodextrin): 306 ± 18 µg/mL
solubility ([2]; PBS + 0.2% SDS, pH 7.4, aqueous with cosolvent or surfactant or cyclodextrin): 350 ± 12 µg/mL
solubility ([2]; aqueous buffer, PBS (pH 7.4)): 254 ± 13 µg/mL (≈ 926 µM)
Assayed content of saturated ropivacaine donor fluid ([3]; PBS pH 7.3, excess solid stirred 3 days, filtered 0.22 μm): 339.98 μg/m L
Diffusion of ropivacaine in PBS (diffusion coefficient) ([3]; PBS, no membrane, D defined in cm^2/s): 4.97×10^−6
D, ropivacaine diffusion coefficient [3, 6]: 1.94E−07 cm^2/s and 2.23E−07 cm^2/s
D, ropivacaine diffusion coefficient [3, 7]: 2.20E−07 cm^2/s and 3.01E−07 cm^2/s
D, ropivacaine diffusion coefficient [3, 8]: 4.30E−07 cm^2/s and 5.43E−07 cm^2/s
D, ropivacaine diffusion coefficient [3, 9]: 6.26E−07 cm^2/s and 3.64E−07 cm^2/s
D, ropivacaine diffusion coefficient [3, 10]: 4.88E−07 cm^2/s and 2.82E−07 cm^2/s
D, ropivacaine diffusion coefficient [3, 11]: 2.32E−07 cm^2/s and 2.64E−07 cm^2/s
D, ropivacaine diffusion coefficient [3, 12]: 2.30E−07 cm^2/s and 2.93E−07 cm^2/s
D, ropivacaine diffusion coefficient [3, 13]: 3.85E−07 cm^2/s and 2.90E−07 cm^2/s
D, ropivacaine diffusion coefficient [3, 14]: 1.68E−07 cm^2/s and 1.99E−07 cm^2/s
D, ropivacaine diffusion coefficient [3, 15]: 3.59E−07 cm^2/s and 3.41E−07 cm^2/s
D, ropivacaine diffusion coefficient [3, 16]: 2.38E−07 cm^2/s and 2.01E−07 cm^2/s
D, ropivacaine diffusion coefficient [3, 17]: 9.09E−08 cm^2/s and 9.21E−08 cm^2/s
D, ropivacaine diffusion coefficient [3, 18]: 1.47E−07 cm^2/s
D, ropivacaine diffusion coefficient [3, 19]: 1.33E−07 cm^2/s and 1.19E−07 cm^2/s
D, ropivacaine diffusion coefficient [3, 20]: 2.40E−07 cm^2/s and 2.15E−07 cm^2/s
D, ropivacaine diffusion coefficient [3, 21]: 1.97E−07 cm^2/s and 1.44E−07 cm^2/s
D, ropivacaine diffusion coefficient [3, 22]: 2.02E−07 cm^2/s and 1.91E−07 cm^2/s
D, ropivacaine diffusion coefficient [3, 23]: 2.41E−07 cm^2/s and 2.18E−07 cm^2/s
Decrease in diffusion coefficient compared to diffusion of ropivacaine in PBS ([3]; PVA membranes 146-186 kDa, >99% hydrolysis, after thermal curing and physical crosslinking): 50 times
Fold Decrease in D [3, 6]: 26 and 22
Fold Decrease in D [3, 7]: 23 and 17
Fold Decrease in D [3, 8]: 12 and 9
Fold Decrease in D [3, 9]: 8 and 14
Fold Decrease in D [3, 10]: 10 and 18
Fold Decrease in D [3, 11]: 21 and 19
Fold Decrease in D [3, 12]: 22 and 17
Fold Decrease in D [3, 13]: 13 and 17
Fold Decrease in D [3, 14]: 30 and 25
Fold Decrease in D [3, 15]: 14 and 15
Fold Decrease in D [3, 16]: 21 and 25
Fold Decrease in D [3, 17]: 55 and 54
Fold Decrease in D [3, 18]: 34
Fold Decrease in D [3, 19]: 37 and 42
Fold Decrease in D [3, 20]: 21 and 23
Fold Decrease in D [3, 21]: 25 and 34
Fold Decrease in D [3, 22]: 25 and 26
Fold Decrease in D [3, 23]: 21 and 23
Intrinsic dissolution compared with ropivacaine coated with PVA membrane [4]: much more rapid
